Results taken from ChEMBL document CHEMBL4354808, “Drugs for the Treatment of Zika Virus Infection” (J Med Chem, 2020).

Assays:
[1] = Cytotoxicity against African green monkey Vero cells by visual method; format: cell-based; conditions: chlorocebus sabaeus
Nonstructural protein 3 [2] = biological target: T1, Nonstructural protein 3 (Zika virus, UniProt A0A024AXB9); test: Inhibition of Zika virus NS2B (1421 to 1469 residues) - NS3 (1503 to 1688 residues) expressed in Escherichia coli BL21(DE3) cells using Dabcyl-KTSAVLQSGFRKME-Edans as substrate after 11 mins by FRET assay
T1 sequence (A0A024AXB9 whole entry, the tested form may be a part): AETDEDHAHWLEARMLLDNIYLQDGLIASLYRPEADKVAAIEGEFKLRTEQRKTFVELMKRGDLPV

Zika virus [3] = test: Antiviral activity against Zika virus Mex2-81 infected in human Jeg-3 cells assessed as reduction in virus-induced toxicity preincubated with cells for 1 hr followed by viral infection and measured 36 hrs post infection; format: functional, organism-based; conditions: Mex2-81, JEG-3
[4] = Cytotoxicity against human JEG3 cells incubated for 36 hrs by resazurin-dye based Alamar blue assay; format: cell-based; conditions: JEG-3 cells
[5] = Cytotoxicity against African green monkey Vero cells by MTT assay; format: cell-based; conditions: chlorocebus sabaeus
Zika virus [6] = test: Antiviral activity against Zika virus MR766 infected in African green monkey Vero cells by plaque assay; format: functional, organism-based
[7] = Cytotoxicity against BHK21 cells after 24 to 48 hrs by CCK8 assay; format: cell-based, Mesocricetus auratus; conditions: hamster, BHK-21 cells
[8] = Cytotoxicity against African green monkey Vero cells; format: cell-based; conditions: chlorocebus sabaeus
[9] = Cytotoxicity against human RD cells; format: cell-based
[10] = Cytotoxicity against human HuH7 cells; format: cell-based; conditions: Huh-7 cells
[11] = Cytotoxicity against human Neural progenitor cells; format: cell-based
[12] = Cytotoxicity against African green monkey Vero cells incubated for 4 days by luminescence method; format: cell-based; conditions: chlorocebus sabaeus
Nonstructural protein 3 [13] = biological target: T1, Nonstructural protein 3; test: Inhibition of Zika virus Asian/8375 NS2B (48 to 100 residues)-NS3 (14 to 185 residues) expressed in Escherichia coli BL21 (DE3) Star cells preincubated for 30 mins followed by Bz-nKRR-AMC substrate addition
NS5 [14] = biological target: T2, NS5 (Zika virus, UniProt A0A143MHK7); test: Binding affinity to Zika virus Methyltransferase
T2 sequence (A0A143MHK7 whole entry, the tested form may be a part): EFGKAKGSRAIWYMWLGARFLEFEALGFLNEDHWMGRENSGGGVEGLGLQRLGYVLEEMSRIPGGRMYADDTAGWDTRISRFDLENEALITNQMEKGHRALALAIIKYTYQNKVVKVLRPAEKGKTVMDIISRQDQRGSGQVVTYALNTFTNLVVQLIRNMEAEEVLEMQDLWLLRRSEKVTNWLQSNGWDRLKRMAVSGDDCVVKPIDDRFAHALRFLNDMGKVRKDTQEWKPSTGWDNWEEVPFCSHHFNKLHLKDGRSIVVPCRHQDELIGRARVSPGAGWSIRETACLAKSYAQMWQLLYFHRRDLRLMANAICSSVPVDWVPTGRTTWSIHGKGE

NS5 [15] = biological target: T2, NS5; test: Inhibition of Zika virus MTase (4 to 278 residues) expressed in Escherichia coli T7 using GpppAC4 as substrate in presence of [3H]SAM incubated for 30 mins by liquid scintillation counter method
NS5 [16] = biological target: T2, NS5; test: Inhibition of Zika virus MTase (4 to 278 residues) expressed in Escherichia coli T7 using A27 RNA as substrate in presence of [3H]SAM incubated for 30 mins by liquid scintillation counter method
[17] = Cytotoxicity against human NSC by CellTiter-Glo assay; format: cell-based; conditions: NSC cells
Nonstructural protein 3 [18] = biological target: T1, Nonstructural protein 3; test: Inhibition of N-terminal His6-tagged Zika virus NS2B (49 to 95 residues) - NS3 (1 to 170 residues) protease domain expressed in Escherichia coli BL21-Gold (DE3) cells preincubated for 10 mins followed by Bz-Nle-Lys-Lys-Arg-AMC substrate addition

Question: For Nc1ncnc2c1ccn2[C@@H]1O[C@H](CO)[C@@H](O)[C@H]1O [TUBERCIDIN], which CC50 [1] is on record?
Answer: The CC50 was greater than 357 µM.

Question: Which IC50 (Nonstructural protein 3 [2]) does the source give for C[C@@H]1O[C@@H](OC[C@H]2O[C@@H](Oc3c(-c4ccc(O)c(O)c4)oc4cc(O)cc(O)c4c3=O)[C@H](O)[C@@H](O)[C@@H]2O)[C@H](O)[C@H](O)[C@H]1O [RUTIN] here?
Answer: Its IC50 is 104 µM.

Question: What does the source list for CO[C@H]1CC[C@@H](O[C@H]2C[C@H]([C@]3(C)CC[C@]4(C[C@H](O)[C@@H](C)[C@@H]([C@@H](C)/C=C(\C)C(=O)[C@H](C)C[C@H](C)C(=O)O)O4)O3)O[C@]3(O[C@@H]([C@H]4O[C@@](O)(CO)[C@H](C)C[C@@H]4C)C[C@@H]3C)[C@@H]2C)O[C@@H]1C?
Answer: EC50 (Zika virus [3]): 0.97 µM; CC50 at 36 h [4]: 6.1 µM

Question: For CC(C)C[C@H]1C(=O)N2CCC[C@H]2[C@]2(O)O[C@](NC(=O)[C@@H]3C=C4c5cccc6[nH]c(Br)c(c56)C[C@H]4N(C)C3)(C(C)C)C(=O)N12 [BROMOCRIPTINE], which CC50 [5] is on record?
Answer: The CC50 was greater than 40 µM.

Question: Which IC50 (Nonstructural protein 3 [2]) does the source give for O=C(O[C@@H]1Cc2c(O)cc(O)cc2O[C@@H]1c1cc(O)c(O)c(O)c1)c1cc(O)c(O)c(O)c1 [EPIGALOCATECHIN GALLATE] here?
Answer: The IC50 was 87 µM.

Question: Which EC50 (Zika virus [6]) does the source give for CCN(CC)CCCC(C)Nc1c2ccc(Cl)cc2nc2ccc(OC)cc12 (configuration not stated) [QUINACRINE] here?
Answer: The EC50 was 2.27 µM.

Question: And the CC50 [7]?
Answer: The CC50 was 18.6 µM.

Question: With C#C[C@@]1(O)[C@H](O)[C@@H](CO)O[C@H]1n1ccc2c(N)ncnc21 as the molecule, how does the CC50 [8] read?
Answer: The CC50 was greater than 50 µM.

Question: With Nc1ncnc2c([C@@H]3N[C@H](CO)[C@@H](O)[C@H]3O)c[nH]c12 as the molecule, how does the CC50 [9] read?
Answer: Its CC50 is greater than 89 µM.

Question: What about the CC50 [10] of the same molecule?
Answer: Its CC50 is greater than 89 µM.

Question: What about the CC50 [8] of the same molecule?
Answer: The CC50 was greater than 89 µM.

Question: Which IC50 (Nonstructural protein 3 [2]) does the source give for O=c1c(O[C@@H]2O[C@H](CO)[C@@H](O)[C@H](O)[C@H]2O)c(-c2ccc(O)cc2)oc2cc(O)cc(O)c12 [ASTRAGALIN] here?
Answer: Its IC50 is 112 µM.

Question: For CC(C)OC(=O)[C@H](C)N[P@](=O)(OC[C@H]1O[C@@H](n2ccc(=O)[nH]c2=O)[C@](C)(F)[C@@H]1O)Oc1ccccc1 [SOFOSBUVIR], which CC50 [8] is on record?
Answer: The CC50 was 360 to 512 µM.

Question: And the CC50 [11]?
Answer: Its CC50 is 360 to 512 µM.

Question: Which IC50 (Nonstructural protein 3 [2]) does the source give for O=c1cc(-c2ccc(O)c(O)c2)oc2cc(O)cc(O)c12 [LUTEOLIN] here?
Answer: Its IC50 is 53 µM.

Question: For O=C(NC(=S)Nc1ccc(N2CCN(C(=O)c3cccs3)CC2)cc1)c1sc2ccccc2c1Cl, which CC50 at 96 h [12] is on record?
Answer: The CC50 at 96 h was 19.4 µM.

Question: Which EC50 (Zika virus [6]) does the source give for O[C@@H](c1cc(C(F)(F)F)nc2c(C(F)(F)F)cccc12)[C@H]1CCCCN1 [(S,R)-MEFLOQUINE] here?
Answer: The EC50 was 3.95 µM.

Question: What about the CC50 [7] of the same molecule?
Answer: Its CC50 is 20.4 µM.

Question: Which IC50 (Nonstructural protein 3 [13]) does the source give for O=c1c(O)c(-c2cc(O)c(O)c(O)c2)oc2cc(O)cc(O)c12 [MYRICETIN] here?
Answer: Its IC50 is 1.3 µM.

Question: What about the Ki (Nonstructural protein 3 [13]) of the same molecule?
Answer: Its Ki is 0.8 µM.

Question: And the IC50 (Nonstructural protein 3 [2])?
Answer: The IC50 was 22 µM.

Question: Which Kd (NS5 [14]) does the source give for C[S+](CC[C@H](N)C(=O)[O-])C[C@H]1O[C@@H](n2cnc3c(N)ncnc32)[C@H](O)[C@@H]1O (some centres not stated) [ADEMETIONINE] here?
Answer: The Kd was 2.58 µM.

Question: Which CC50 [8] does the source give for NC(=O)c1ncn([C@@H]2O[C@H](CO)[C@@H](O)[C@H]2O)n1 [RIBAVIRIN] here?
Answer: Its CC50 is greater than 100 µM.

Question: Which IC50 (NS5 [15]) does the source give for Nc1cc(C(F)(F)F)ccc1NC(=O)Nc1cccc(S(=O)(=O)Nc2ccc(C(=O)O)cc2)c1 here?
Answer: The IC50 was 24 µM.

Question: And the IC50 (NS5 [16])?
Answer: Its IC50 is 79 µM.

Question: Which CC50 [17] does the source give for C#C[C@@]1(O)[C@H](O)[C@@H](COP(=O)(N[C@@H](C)C(=O)OC(C)C)Oc2ccccc2)O[C@H]1n1ccc(=O)[nH]c1=O (some centres not stated) here?
Answer: The CC50 was greater than 50 µM.

Question: With CC(C)(C)NCc1ccc(Nc2ccnc3cc(Cl)ccc23)cc1O [GSK-369796] as the molecule, how does the EC50 (Zika virus [6]) read?
Answer: The EC50 was 2.57 µM.

Question: And the CC50 [7]?
Answer: Its CC50 is 98 µM.

Question: Which IC50 (NS5 [15]) does the source give for Nc1ncnc2c1ncn2[C@@H]1O[C@H](C[C@@H](N)CC[C@H](N)C(=O)O)[C@@H](O)[C@H]1O [SINEFUNGIN] here?
Answer: The IC50 was 1.18 µM.

Question: And the IC50 (NS5 [16])?
Answer: The IC50 was 1.62 µM.

Question: For N=C(N)NCCC[C@H](NC(=O)[C@H](Cc1ccc(CN)cc1)NC(=O)c1ccccc1)B(O)O, which IC50 (Nonstructural protein 3 [18]) is on record?
Answer: The IC50 was 0.25 µM.

Question: And the Ki (Nonstructural protein 3 [18])?
Answer: Its Ki is 0.04 µM.

Question: With O=C(O[C@@H]1Cc2c(O)cc(O)cc2O[C@H]1c1cc(O)c(O)c(O)c1)c1cc(O)c(O)c(O)c1 [GALLOCATECHIN GALLATE] as the molecule, how does the IC50 (Nonstructural protein 3 [2]) read?
Answer: Its IC50 is 99 µM.

Question: With O=C(O[C@@H]1Cc2c(O)cc(O)cc2O[C@@H]1c1ccc(O)c(O)c1)c1cc(O)c(O)c(O)c1 [EPICATECHIN GALLATE] as the molecule, how does the IC50 (Nonstructural protein 3 [2]) read?
Answer: Its IC50 is 89 µM.

Question: Which CC50 [17] does the source give for CC(C)OC(=O)[C@H](C)NP(=O)(OC[C@H]1O[C@@H](n2ccc(=O)[nH]c2=O)[C@H](O)[C@@H]1O)Oc1ccccc1 (some centres not stated) here?
Answer: Its CC50 is 47 µM.

Question: Which Kd (NS5 [14]) does the source give for Nc1ncnc2c1ncn2[C@@H]1O[C@H](CN(CC[C@H](N)C(=O)O)Cc2ccc(F)cc2)[C@@H](O)[C@H]1O here?
Answer: Its Kd is 24.3 µM.
